Among the data in ChEMBL document CHEMBL5365454, “Strong Binding of C-Glycosylic1,2-Thiodisaccharides to Galectin-3─Enthalpy-Driven Affinity Enhancement by Water-Mediated Hydrogen Bonds” (J Med Chem, 2023) are -TdeltaS, deltaH and deltaG values, retold here.

Assay [1] deals with Galectin-3 (Homo sapiens) (UniProt P17931). Briefly: Binding affinity to recombinant human galectin-3 carbohydrate recognition domain expressed in Escherichia coli BL21 (DE3) cells assessed as change in entropy by Nano-ITC analysis.
Sequence of Galectin-3 (Homo sapiens) (P17931 whole entry, the tested form may be a part): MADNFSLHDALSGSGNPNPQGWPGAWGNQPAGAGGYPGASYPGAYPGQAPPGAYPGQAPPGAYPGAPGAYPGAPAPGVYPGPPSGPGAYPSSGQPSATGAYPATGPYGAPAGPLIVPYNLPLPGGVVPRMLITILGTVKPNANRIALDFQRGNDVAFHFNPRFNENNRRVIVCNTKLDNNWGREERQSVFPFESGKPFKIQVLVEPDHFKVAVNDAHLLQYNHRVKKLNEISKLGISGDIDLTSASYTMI
For assay [2] the target is unchanged. Briefly: Binding affinity to recombinant human galectin-3 carbohydrate recognition domain expressed in Escherichia coli BL21 (DE3) cells assessed as change in enthalpy by Nano-ITC analysis.
Assay [3] has the same target. Put plainly: Binding affinity to recombinant human galectin-3 carbohydrate recognition domain expressed in Escherichia coli BL21 (DE3) cells assessed as gibbs free energy change by Nano-ITC analysis.

For the molecule `OC[C@H]1O[C@@H](S[C@@H]2CO[C@H](CO)[C@H](O)[C@@H]2O)[C@H](O)[C@@H](O)[C@H]1O`, in assay [1], the -TdeltaS came to 0.0956 kcal/mol. Also, the deltaH in assay [2] was -6.48 kcal/mol.

For the molecule `COC(=O)[C@@H]1O[C@H](CO)[C@H](O)[C@H](O)[C@@H]1S[C@@H]1O[C@H](CO)[C@H](O)[C@H](O)[C@H]1O`, in assay [1], the -TdeltaS worked out at 1.24 kcal/mol. Besides, in assay [2], the deltaH was -7.72 kcal/mol.

For the molecule `OC[C@H]1O[C@@H](S[C@@H]2O[C@H](CO)[C@H](O)[C@H](O)[C@H]2O)[C@H](O)[C@@H](O)[C@H]1O`, the -TdeltaS in assay [1] is -1.21 kcal/mol. Further, the deltaH in assay [2] was -4.73 kcal/mol.

For the molecule `NC(=O)[C@@H]1O[C@H](CO)[C@H](O)[C@H](O)[C@@H]1S[C@@H]1O[C@H](CO)[C@H](O)[C@H](O)[C@H]1O`, the -TdeltaS in assay [1] is 0.0478 kcal/mol.

As to `NC(=O)[C@@H]1O[C@H](CO)[C@@H](O)[C@H](O)[C@@H]1S[C@@H]1O[C@H](CO)[C@H](O)[C@H](O)[C@H]1O`, the -TdeltaS in assay [1] came out at 1.15 kcal/mol. The deltaH in assay [2] is -7.74 kcal/mol.

Regarding LACTOSE, ANHYDROUS, the -TdeltaS in assay [1] is -0.485 kcal/mol. Moreover, the deltaG in assay [3] was -5.95 kcal/mol. The deltaH in assay [2] is -5.47 kcal/mol.
